Source: US20240376097A1, “BCL-2 Inhibitor” (BeiGene Ltd., priority 2020, published 2024)

What was measured:
[1] = Metabolic Stability Study, liver microsome incubation (mouse); format: in vitro ADME; conditions: mouse liver microsomes 0.5 mg/mL, 1 μM compound, NADPH; for half-life at 1 μM: NA^# = very stable, beyond the detection limits, read-out: T1/2 (min) mouse; for microsomal CLint at 1 μM: read-out: CLint (μL × min^−1 × mg^−1) mouse
Protocol: (§1) Biological Example: Metabolic Stability Study
(§2) The metabolic stability of some compounds was evaluated by using the liver microsome incubation system in vitro. Briefly, the test compounds at 1 μM, were incubated with 0.5 mg/mL liver microsomes from different species (human, dog, rat and mouse) with an NADPH regenerating system at 37° C. Samples were quenched at three time points (0, 30, 60 min) with organic solvent containing internal standards, and the supernatant was analyzed for parent loss via LC-MS/MS. Midazolam was used as the positive control to validate the incubation system.
(§3) where Cprotein is the microsomal protein concentration in the incubation system.
(§4) The value of CLint and T1/2 of Example F132b in WO2019210818 and representative compounds of the disclosure were determined, and the results are shown in Table 5.

[2] = Metabolic Stability Study, liver microsome incubation (human); format: in vitro ADME; conditions: human liver microsomes 0.5 mg/mL, 1 μM compound, NADPH; for half-life at 1 μM: NA^# = very stable, beyond the detection limits, read-out: T1/2 (min) Human; for microsomal CLint at 1 μM: read-out: CLint (μL × min^−1 × mg^−1) Human
Protocol: as §1, §2, §3, §4

[3] = system: BCL-2 G101V knock-in cell line H96 (derive from RS4;11); assay: Bcl 2-G101V Knock-In RS4;11 Cell Proliferation Assay; format: cell-based; conditions: Homo sapiens, RS4-11, 48 h, RS4;11 Bcl-2 G101V knock-in clone H96, 48 hrs, CellTiter-GLO, read-out: Cellular proliferation assay (IC50, nM) RS4
Procedure, shortened: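 CellTiter-Glo luminescence after 48 h, 37 °C compound treatment (10 concentrations, maximum 1 μM or 10 μM) gave mean IC50 values. Cells were 50,000 per well of H96, a BCL2-G101V knock-in single clone derived from RS4;11 by Cas9 editing.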

[4] = target: recombinant human Bcl-2-G101V protein (Homo sapiens (Human), UniProt P10415, G101V); assay: Bcl-2-G101V TR-FRET Assay; format: binding; conditions: Bcl-2 G101V mutant, TR-FRET; read-out: Biochemical assay (IC50, nM) Bcl-2 G101V
Procedure, shortened: (§5)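 IC50 values derive from four-parameter logistic fitting of percent inhibition data. That inhibition of ligand binding to Bcl-2-G101V is computed from the 490 nm/520 nm TR-FRET ratio under 337 nm excitation, over a rising compound concentration series.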

[5] = system: recombinant human Bcl-2-G101V protein; assay: Bcl-2-G101V TR-FRET Assay; format: binding; conditions: for Ratio of Bcl-2 G101V/WT: ratio of biochemical IC50 Bcl-2 G101V / Bcl-2 WT
Procedure, shortened: as §5

COc1ccc(CN2CCN(C3CC4(CCN(c5ccc(C(=O)NS(=O)(=O)c6ccc(NCC7(F)CCOCC7)c([N+](=O)[O-])c6)c(Oc6cnc7[nH]ccc7c6)c5)CC4)C3)[C@H](c3ccccc3C(C)C)C2)cc1 (single isomer, unassigned) [Example 32, (R or S)-2-((1H-pyrrolo[2,3-b]pyridin-5-yl)oxy)-N-((4-(((4-fluorotetrahydro-2H-pyran-4-yl)methyl)amino)-3-nitrophenyl)sulfonyl)-4-(2-(2-(2-isopropylphenyl)-4-(4-methoxybenzyl)piperazin-1-yl)-7-azaspiro[3.5]nonan-7-yl)benzamide]
half-life at 1 μM [1]: 202 min | microsomal CLint at 1 μM [1]: 6.8 µL/min/mg | half-life at 1 μM [2]: 533 min | microsomal CLint at 1 μM [2]: 2.6 µL/min/mg | IC50 [3]: 0.96 nM | IC50 [4]: 0.28 nM | Ratio of Bcl-2 G101V/WT [5]: 2.9

CC(C)c1ccccc1[C@@H]1CN(Cc2ccc(F)c(F)c2)CCN1C1CC2(CCN(c3ccc(C(=O)NS(=O)(=O)c4ccc(NC[C@H]5CC[C@](C)(O)CC5)c([N+](=O)[O-])c4)c(Oc4cnc5[nH]ccc5c4)c3)CC2)C1 (single isomer, unassigned) [Example 52a, 2-((1H-pyrrolo[2,3-b]pyridin-5-yl)oxy)-4-(2-((R or S)-4-(3,4-difluorobenzyl)-2-(2-isopropylphenyl)piperazin-1-yl)-7-azaspiro[3.5]nonan-7-yl)-N-((4-((((1r,4r)-4-hydroxy-4-methylcyclohexyl)methyl)amino)-3-nitrophenyl)sulfonyl)benzamide]
IC50 [3]: 1.67 nM | IC50 [4]: 0.68 nM | Ratio of Bcl-2 G101V/WT [5]: 4.2

COc1ccc(CN2CCN(C3CC4(CCN(c5ccc(C(=O)NS(=O)(=O)c6ccc(NC[C@H]7CC[C@](C)(O)CC7)c([N+](=O)[O-])c6)c(Oc6cnc7[nH]ccc7c6)c5)CC4)C3)[C@H](c3ccccc3C(C)C)C2)cc1 [Example 19a, 2-((1H-pyrrolo[2,3-b]pyridin-5-yl)oxy)-N-((4-((((1r,4r)-4-hydroxy-4-methylcyclohexyl)methyl)amino)-3-nitrophenyl)sulfonyl)-4-(2-((R)-2-(2-isopropylphenyl)-4-(4-methoxybenzyl)piperazin-1-yl)-7-azaspiro[3.5]nonan-7-yl)benzamide]
half-life at 1 μM [1]: 346 min | microsomal CLint at 1 μM [1]: 4 µL/min/mg | microsomal CLint at 1 μM [2]: < 1 µL/min/mg | IC50 [3]: 0.57 nM | IC50 [4]: 0.18 nM | ratio of IC50 of Bcl-2 G101V/Bcl-2 wt, compared with Example F132b in WO2019210828 and ABT-199 (venetoclax) ([5]; comparison in words): much lower | Ratio of Bcl-2 G101V/WT [5]: 3.2

CC(C)c1ccccc1C1CN(Cc2ccc(F)cc2)CCN1C1CC2(CCN(c3ccc(C(=O)NS(=O)(=O)c4ccc(NC[C@H]5CC[C@](C)(O)CC5)c([N+](=O)[O-])c4)c(Oc4cnc5[nH]ccc5c4)c3)CC2)C1 (some centres unmarked) [Example 28, 2-((1H-pyrrolo[2,3-b]pyridin-5-yl)oxy)-4-(2-(4-(4-fluorobenzyl)-2-(2-isopropylphenyl)piperazin-1-yl)-7-azaspiro[3.5]nonan-7-yl)-N-((4-((((1r,4r)-4-hydroxy-4-methylcyclohexyl)methyl)amino)-3-nitrophenyl)sulfonyl)benzamide]
half-life at 1 μM [1]: 200 min | microsomal CLint at 1 μM [1]: 6.9 µL/min/mg | half-life at 1 μM [2]: 135 min | microsomal CLint at 1 μM [2]: 10.3 µL/min/mg | IC50 [3]: 2.69 nM | IC50 [4]: 0.82 nM | Ratio of Bcl-2 G101V/WT [5]: 3.6

CC(C)c1ccccc1C1CN(Cc2ccc(Cl)cc2)CCN1C1CC2(CCN(c3ccc(C(=O)NS(=O)(=O)c4ccc(NC[C@H]5CC[C@](C)(O)CC5)c([N+](=O)[O-])c4)c(Oc4cnc5[nH]ccc5c4)c3)CC2)C1 (some centres unmarked) [Example 29, 2-((1H-pyrrolo[2,3-b]pyridin-5-yl)oxy)-4-(2-(4-(4-chlorobenzyl)-2-(2-isopropylphenyl)piperazin-1-yl)-7-azaspiro[3.5]nonan-7-yl)-N-((4-((((1r,4r)-4-hydroxy-4-methylcyclohexyl)methyl)amino)-3-nitrophenyl)sulfonyl)benzamide]
half-life at 1 μM [1]: 2360 min | microsomal CLint at 1 μM [1]: 0.6 µL/min/mg | half-life at 1 μM [2]: 245 min | microsomal CLint at 1 μM [2]: 5.6 µL/min/mg | IC50 [3]: 2.95 nM | IC50 [4]: 1.5 nM | Ratio of Bcl-2 G101V/WT [5]: 5.2

CC(C)c1ccccc1C1CN(Cc2ccc(C(F)(F)F)cc2)CCN1C1CC2(CCN(c3ccc(C(=O)NS(=O)(=O)c4ccc(NC[C@H]5CC[C@](C)(O)CC5)c([N+](=O)[O-])c4)c(Oc4cnc5[nH]ccc5c4)c3)CC2)C1 (some centres unmarked) [Example 41, 2-((1H-pyrrolo[2,3-b]pyridin-5-yl)oxy)-N-((4-((((1r,4r)-4-hydroxy-4-methylcyclohexyl)methyl)amino)-3-nitrophenyl)sulfonyl)-4-(2-(2-(2-isopropylphenyl)-4-(4-(trifluoromethyl)benzyl)piperazin-1-yl)-7-azaspiro[3.5]nonan-7-yl) benzamide]
half-life at 1 μM [1]: 683 min | microsomal CLint at 1 μM [1]: 2 µL/min/mg | half-life at 1 μM [2]: 997 min | microsomal CLint at 1 μM [2]: 1.4 µL/min/mg | IC50 [3]: 7.2 nM | IC50 [4]: 3.8 nM | Ratio of Bcl-2 G101V/WT [5]: 4.6

CC(C)c1ccccc1C1CN(Cc2cccc(F)c2)CCN1C1CC2(CCN(c3ccc(C(=O)NS(=O)(=O)c4ccc(NC[C@H]5CC[C@](C)(O)CC5)c([N+](=O)[O-])c4)c(Oc4cnc5[nH]ccc5c4)c3)CC2)C1 (some centres unmarked) [Example 43, 2-((1H-pyrrolo[2,3-b]pyridin-5-yl)oxy)-4-(2-(4-(3-fluorobenzyl)-2-(2-isopropylphenyl)piperazin-1-yl)-7-azaspiro[3.5]nonan-7-yl)-N-((4-((((1r,4r)-4-hydroxy-4-methylcyclohexyl)methyl)amino)-3-nitrophenyl)sulfonyl)benzamide]
half-life at 1 μM [1]: 193 min | microsomal CLint at 1 μM [1]: 7.1 µL/min/mg | half-life at 1 μM [2]: 108 min | microsomal CLint at 1 μM [2]: 12.8 µL/min/mg | IC50 [3]: 3.27 nM | IC50 [4]: 1.3 nM | Ratio of Bcl-2 G101V/WT [5]: 4.2

CC(C)c1ccccc1C1CN(Cc2ccccc2F)CCN1C1CC2(CCN(c3ccc(C(=O)NS(=O)(=O)c4ccc(NC[C@H]5CC[C@](C)(O)CC5)c([N+](=O)[O-])c4)c(Oc4cnc5[nH]ccc5c4)c3)CC2)C1 (some centres unmarked) [Example 46, 2-((1H-pyrrolo[2,3-b]pyridin-5-yl)oxy)-4-(2-(4-(2-fluorobenzyl)-2-(2-isopropylphenyl)piperazin-1-yl)-7-azaspiro[3.5]nonan-7-yl)-N-((4-((((1r,4r)-4-hydroxy-4-methylcyclohexyl)methyl)amino)-3-nitrophenyl)sulfonyl)benzamide]
half-life at 1 μM [1]: 131 min | microsomal CLint at 1 μM [1]: 10.5 µL/min/mg | half-life at 1 μM [2]: 153 min | microsomal CLint at 1 μM [2]: 9.1 µL/min/mg | IC50 [3]: 10.2 nM | IC50 [4]: 2.7 nM | Ratio of Bcl-2 G101V/WT [5]: 7.9

COc1ccc(CN2CCN(C3CC4(CCN(c5ccc(C(=O)NS(=O)(=O)c6ccc(NC[C@H]7CC[C@](C)(O)CC7)c([N+](=O)[O-])c6)c(Oc6cnc7[nH]ccc7c6)c5)CC4)C3)C(c3ccccc3C(C)C)C2)c(OC)c1 (some centres unmarked) [Example 48]
half-life at 1 μM [1]: 323 min | microsomal CLint at 1 μM [1]: 4.3 µL/min/mg | half-life at 1 μM [2]: 256 min | microsomal CLint at 1 μM [2]: 5.4 µL/min/mg | IC50 [3]: 1.9 nM | IC50 [4]: 0.33 nM | Ratio of Bcl-2 G101V/WT [5]: 4.6
